Assay results reported in ChEMBL document CHEMBL3243959, “In vitro metabolism of a new 4-hydroxycoumarin anticoagulant. Structure of an unusual metabolite” (J Med Chem, 1977).
Active and inactive are the calls of the source. The rule behind the calls is not given here.

How the values were obtained:
[1] = Retardation factor of the compound in 9:1 v/v benzene-ethyl acetate solvent system by TLC analysis; assay type: physicochemical
Liver microsome [2] = experiment: Drug metabolism in Wistar albino rat liver soluble microsomal fraction assessed as formation of 6-[1-Hydroxy-2-oxo-3-[p-(2-chloroethyl)phenyl]hexylidene]-2,4-cyclohexadien-1-one; assay type: ADME; settings: microsomes
[3] = Drug metabolism in Wistar albino rat liver nuclear fraction assessed as formation of 6-[1-Hydroxy-2-oxo-3-[p-(2-chloroethyl)phenyl]hexylidene]-2,4-cyclohexadien-1-one at 5 umol after 30 mins by TLC analysis; assay type: ADME; settings: 0.5 h
Liver microsome [4] = experiment: Drug metabolism in Wistar albino rat liver microsomes assessed as formation of 6-[1-Hydroxy-2-oxo-3-[p-(2-chloroethyl)phenyl]hexylidene]-2,4-cyclohexadien-1-one at 5 umol after 30 mins by TLC analysis in presence of NADP/NAD/NADH/oxygen; assay type: ADME; settings: 0.5 h
[5] = Drug metabolism in CBRI mouse liver microsomes assessed as formation of 6-[1-Hydroxy-2-oxo-3-[p-(2-chloroethyl)phenyl]hexylidene]-2,4-cyclohexadien-1-one at 5 umol after 30 mins by TLC analysis in presence of NADPH generating system; assay type: ADME; settings: 0.5 h
[6] = Drug metabolism in Duncan-Hartley guinea pig liver microsomes assessed as formation of 6-[1-Hydroxy-2-oxo-3-[p-(2-chloroethyl)phenyl]hexylidene]-2,4-cyclohexadien-1-one at 5 umol after 30 mins by TLC analysis in presence of NADPH generating system; assay type: ADME, Cavia porcellus; settings: 0.5 h
Liver microsome [7] = experiment: Drug metabolism in Wistar albino rat washed liver microsomal fraction assessed as formation of 6-[1-Hydroxy-2-oxo-3-[p-(2-chloroethyl)phenyl]hexylidene]-2,4-cyclohexadien-1-one at 5 umol after 30 mins by TLC analysis; assay type: ADME; settings: microsomes, 0.5 h
[8] = Retardation factor of the compound in 20:3 v/v benzene-acetic acid solvent system by TLC analysis; assay type: physicochemical
[9] = Drug metabolism in Wistar albino rat mitochondrial fraction assessed as formation of 6-[1-Hydroxy-2-oxo-3-[p-(2-chloroethyl)phenyl]hexylidene]-2,4-cyclohexadien-1-one at 5 umol after 30 mins by TLC analysis; assay type: ADME, Mitochondria; settings: 0.5 h
Liver microsome [10] = experiment: Drug metabolism in Wistar albino rat liver microsomes assessed as formation of 6-[1-Hydroxy-2-oxo-3-[p-(2-chloroethyl)phenyl]hexylidene]-2,4-cyclohexadien-1-one at 5 umol after 30 mins by TLC analysis in presence of nitrogen; assay type: ADME; settings: 0.5 h
[11] = Retardation factor of the compound in 9:1 v/v dichloroethane-acetone solvent system by TLC analysis; assay type: physicochemical
Liver microsome [12] = experiment: Drug level in Wistar albino rat washed liver microsomal fraction treated with clocoumarol at 5 umol after 30 mins by TLC analysis; assay type: ADME; settings: microsomes, 0.5 h
[13] = Drug level in CBRI mouse liver microsomes treated with clocoumarol at 5 umol after 30 mins by TLC analysis in presence of NADPH generating system; assay type: ADME; settings: 0.5 h
Liver microsome [14] = experiment: Drug level in Wistar albino rat liver microsomes treated with clocoumarol at 5 umol after 30 mins by TLC analysis in presence of NADP/NAD/NADH/oxygen; assay type: ADME; settings: 0.5 h
Liver microsome [15] = experiment: Drug metabolism Wistar albino rat liver microsomes assessed as formation of 6-[1-Hydroxy-2-oxo-3-[p-(2-chloroethyl)phenyl]hexylidene]-2,4-cyclohexadien-1-one at 5 umol after 30 mins by TLC analysis in presence of carbon monooxide; assay type: ADME; settings: 0.5 h
Liver microsome [16] = experiment: Drug level in Wistar albino rat liver microsomes treated with clocoumarol at 5 umol after 30 mins TLC analysis in presence of NADPH generating system; assay type: ADME; settings: 0.5 h
Rattus norvegicus = experiment: Anticoagulant activity in rat at 100 x 0.25 mg/kg, ip; assay type: functional, organism-based; set-up: dose 0.25 mg/kg
[17] = Drug level in Duncan-Hartley guinea pig liver microsomes treated with clocoumarol at 5 umol after 30 mins by TLC analysis in presence of NADPH generating system; assay type: ADME, Cavia porcellus; settings: 0.5 h

Row | Structure (SMILES) | Rf [1] | Drug metabolism (Liver microsome [2]) | Drug metabolism [3] | Drug metabolism (Liver microsome [4]) | Drug metabolism [5] | Drug metabolism [6] | Drug metabolism (Liver microsome [7]) | Rf [8] | Drug metabolism [9] | Drug metabolism (Liver microsome [10]) | Rf [11] | Drug metabolism (Liver microsome [12]) | Drug metabolism [13] | Drug metabolism (Liver microsome [14]) | Drug metabolism (Liver microsome [15]) | Drug metabolism (Liver microsome [16]) | Activity (Rattus norvegicus) | Drug metabolism [17]
1 | CCCC(c1ccc(CCCl)cc1)c1c(O)c2ccccc2oc1=O (stereo unspecified) [CLOCOUMAROL] | 0.33 | metabolite_notdetected | metabolite_notdetected | metabolite_detected | metabolite_detected | metabolite_detected | metabolite_detected | 0.67 | metabolite_notdetected | metabolite_notdetected | 0.53 |  |  |  |  |  |  | 
2 | CCCC(C(=O)/C(O)=C1\C=CC=CC1=O)c1ccc(CCCl)cc1 (stereo unspecified) | 0.44 |  |  |  |  |  |  | 0.74 |  |  | 0.61 | metabolite_detected | metabolite_detected | metabolite_detected | metabolite_notdetected | metabolite_detected | inactive | metabolite_detected
